Experiments:
Histone deacetylase 1 [1] = target: T1, Histone deacetylase 1 (Homo sapiens, UniProt Q13547)
Description: Inhibition of full length recombinant HDAC1 using Fluor de Lys as substrate by fluorescence assay

PC-3 = test: Antiproliferative activity against human PC3 cells after 96 hrs by celltiter 96 assay; type: functional, cell-based; settings: PC-3, 96 h
HCT-116 = test: Antiproliferative activity against human HCT116 cells after 96 hrs by celltiter 96 assay; type: functional, cell-based; settings: HCT-116, 96 h
COLO 205 = test: Antiproliferative activity against human COLO205 cells after 96 hrs by celltiter 96 assay; type: functional, cell-based; settings: COLO 205, 96 h
A2780 = test: Antiproliferative activity against human A2780 cells after 96 hrs by celltiter 96 assay; type: functional, cell-based; settings: A2780, 96 h
Histone deacetylase 2 = Histone deacetylase 2 (Homo sapiens, UniProt Q92769)
Sequence of Histone deacetylase 2 (Q92769 whole entry): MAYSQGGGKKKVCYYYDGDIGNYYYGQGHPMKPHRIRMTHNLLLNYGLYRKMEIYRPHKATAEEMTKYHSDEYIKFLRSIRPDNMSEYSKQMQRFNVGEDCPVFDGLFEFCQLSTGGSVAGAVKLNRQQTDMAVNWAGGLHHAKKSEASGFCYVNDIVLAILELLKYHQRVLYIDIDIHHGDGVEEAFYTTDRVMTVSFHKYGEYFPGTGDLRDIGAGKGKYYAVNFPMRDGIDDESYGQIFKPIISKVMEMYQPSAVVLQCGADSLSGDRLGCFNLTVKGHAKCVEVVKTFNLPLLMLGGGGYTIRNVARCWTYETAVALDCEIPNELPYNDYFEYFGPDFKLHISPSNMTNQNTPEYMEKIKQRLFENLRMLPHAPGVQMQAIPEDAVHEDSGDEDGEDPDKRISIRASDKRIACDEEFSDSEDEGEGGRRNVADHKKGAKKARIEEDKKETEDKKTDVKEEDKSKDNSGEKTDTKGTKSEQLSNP
Description: Competitive inhibition of HDAC2 using KI-104 as substrate by fluorescence assay

Histone deacetylase 5 = Histone deacetylase 5 (Homo sapiens, UniProt Q9UQL6)
Sequence of Histone deacetylase 5 (Q9UQL6 whole entry): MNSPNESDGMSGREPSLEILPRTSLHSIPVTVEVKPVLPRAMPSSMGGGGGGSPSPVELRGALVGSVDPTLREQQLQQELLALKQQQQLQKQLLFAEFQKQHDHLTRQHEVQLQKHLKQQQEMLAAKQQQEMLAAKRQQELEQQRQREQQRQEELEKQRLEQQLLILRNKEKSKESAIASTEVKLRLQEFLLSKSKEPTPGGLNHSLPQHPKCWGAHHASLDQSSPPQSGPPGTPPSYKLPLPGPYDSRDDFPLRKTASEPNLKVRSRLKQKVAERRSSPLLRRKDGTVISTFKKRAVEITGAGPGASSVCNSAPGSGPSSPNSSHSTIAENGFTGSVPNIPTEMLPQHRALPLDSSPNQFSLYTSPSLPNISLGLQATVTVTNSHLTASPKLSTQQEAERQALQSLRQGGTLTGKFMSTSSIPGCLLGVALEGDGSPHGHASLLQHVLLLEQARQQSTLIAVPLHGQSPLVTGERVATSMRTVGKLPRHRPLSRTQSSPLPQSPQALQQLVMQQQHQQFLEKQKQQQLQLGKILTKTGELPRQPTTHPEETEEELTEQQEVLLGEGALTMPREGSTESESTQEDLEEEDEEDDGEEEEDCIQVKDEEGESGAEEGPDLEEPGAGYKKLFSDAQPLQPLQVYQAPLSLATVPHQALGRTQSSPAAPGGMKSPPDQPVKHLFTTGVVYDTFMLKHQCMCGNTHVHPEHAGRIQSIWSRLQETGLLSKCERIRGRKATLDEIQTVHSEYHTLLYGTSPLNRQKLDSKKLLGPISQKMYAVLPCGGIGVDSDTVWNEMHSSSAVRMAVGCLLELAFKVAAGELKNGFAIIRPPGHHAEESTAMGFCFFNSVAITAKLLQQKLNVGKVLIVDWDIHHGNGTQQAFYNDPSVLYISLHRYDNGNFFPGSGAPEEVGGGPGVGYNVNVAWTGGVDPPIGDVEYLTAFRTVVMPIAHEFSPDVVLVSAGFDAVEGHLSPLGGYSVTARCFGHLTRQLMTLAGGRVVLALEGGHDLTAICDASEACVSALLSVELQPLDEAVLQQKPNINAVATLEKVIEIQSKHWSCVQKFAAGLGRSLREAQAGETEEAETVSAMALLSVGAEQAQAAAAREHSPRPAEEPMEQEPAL
Description: Competitive inhibition of HDAC5 using KI-104 as substrate by fluorescence assay

Histone deacetylase 1 [2] = target: T1, Histone deacetylase 1; remark: listed apart in the source
Description: Competitive inhibition of HDAC1 using KI-104 as substrate by fluorescence assay

Histone deacetylase 9 = Histone deacetylase 9 (Homo sapiens, UniProt Q9UKV0)
Sequence of Histone deacetylase 9 (Q9UKV0 whole entry): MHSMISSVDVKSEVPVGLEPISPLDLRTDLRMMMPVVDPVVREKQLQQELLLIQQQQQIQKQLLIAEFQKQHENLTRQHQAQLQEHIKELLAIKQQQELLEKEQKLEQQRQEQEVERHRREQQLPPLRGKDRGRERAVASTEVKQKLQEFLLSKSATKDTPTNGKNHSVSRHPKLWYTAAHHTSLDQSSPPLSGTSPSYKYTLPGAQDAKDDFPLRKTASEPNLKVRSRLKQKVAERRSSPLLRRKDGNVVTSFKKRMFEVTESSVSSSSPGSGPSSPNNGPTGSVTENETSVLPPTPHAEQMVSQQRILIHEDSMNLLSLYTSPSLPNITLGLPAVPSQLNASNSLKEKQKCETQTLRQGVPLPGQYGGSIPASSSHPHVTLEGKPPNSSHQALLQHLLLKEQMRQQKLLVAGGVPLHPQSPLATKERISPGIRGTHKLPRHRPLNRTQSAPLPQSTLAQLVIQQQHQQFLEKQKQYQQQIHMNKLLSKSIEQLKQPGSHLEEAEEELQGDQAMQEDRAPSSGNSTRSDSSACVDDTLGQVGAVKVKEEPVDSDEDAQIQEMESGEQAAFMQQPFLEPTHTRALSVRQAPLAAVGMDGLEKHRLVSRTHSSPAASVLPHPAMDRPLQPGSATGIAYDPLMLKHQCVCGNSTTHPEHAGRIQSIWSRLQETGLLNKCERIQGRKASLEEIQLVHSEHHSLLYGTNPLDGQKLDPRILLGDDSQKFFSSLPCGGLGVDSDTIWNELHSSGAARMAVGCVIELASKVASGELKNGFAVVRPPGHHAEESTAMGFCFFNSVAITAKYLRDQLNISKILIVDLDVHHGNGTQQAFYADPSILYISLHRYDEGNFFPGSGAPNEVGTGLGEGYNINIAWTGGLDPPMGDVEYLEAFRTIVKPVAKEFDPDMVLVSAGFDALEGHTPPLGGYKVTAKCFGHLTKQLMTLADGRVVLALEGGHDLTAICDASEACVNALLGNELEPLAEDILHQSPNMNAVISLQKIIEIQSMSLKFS
Description: Competitive inhibition of HDAC9 using KI-104 as substrate by fluorescence assay

[3] = target: T2, Polyamine deacetylase HDAC10 (Homo sapiens, UniProt Q969S8)
T2 sequence (Q969S8 whole entry): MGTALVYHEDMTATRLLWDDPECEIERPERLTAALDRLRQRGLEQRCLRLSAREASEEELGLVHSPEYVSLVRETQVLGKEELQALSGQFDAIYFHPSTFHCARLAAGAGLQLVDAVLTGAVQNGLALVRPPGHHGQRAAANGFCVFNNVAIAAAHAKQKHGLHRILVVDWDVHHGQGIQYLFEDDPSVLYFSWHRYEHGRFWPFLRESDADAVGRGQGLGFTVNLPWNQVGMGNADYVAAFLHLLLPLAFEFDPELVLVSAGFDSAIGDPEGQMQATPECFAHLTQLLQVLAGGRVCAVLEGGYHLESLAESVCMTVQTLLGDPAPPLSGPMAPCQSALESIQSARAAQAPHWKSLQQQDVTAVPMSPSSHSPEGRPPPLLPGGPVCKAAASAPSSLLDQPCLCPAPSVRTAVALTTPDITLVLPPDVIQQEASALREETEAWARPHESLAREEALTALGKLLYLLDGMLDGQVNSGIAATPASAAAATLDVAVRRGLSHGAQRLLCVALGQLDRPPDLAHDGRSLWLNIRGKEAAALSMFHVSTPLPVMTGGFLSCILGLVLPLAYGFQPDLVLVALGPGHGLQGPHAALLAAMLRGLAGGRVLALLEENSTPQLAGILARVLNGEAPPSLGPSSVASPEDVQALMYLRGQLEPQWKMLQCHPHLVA
Description: Competitive inhibition of HDAC10 using KI-104 as substrate by fluorescence assay

Histone deacetylase 8 = target: T3, Histone deacetylase 8 (Homo sapiens, UniProt Q9BY41)
T3 sequence (Q9BY41 whole entry): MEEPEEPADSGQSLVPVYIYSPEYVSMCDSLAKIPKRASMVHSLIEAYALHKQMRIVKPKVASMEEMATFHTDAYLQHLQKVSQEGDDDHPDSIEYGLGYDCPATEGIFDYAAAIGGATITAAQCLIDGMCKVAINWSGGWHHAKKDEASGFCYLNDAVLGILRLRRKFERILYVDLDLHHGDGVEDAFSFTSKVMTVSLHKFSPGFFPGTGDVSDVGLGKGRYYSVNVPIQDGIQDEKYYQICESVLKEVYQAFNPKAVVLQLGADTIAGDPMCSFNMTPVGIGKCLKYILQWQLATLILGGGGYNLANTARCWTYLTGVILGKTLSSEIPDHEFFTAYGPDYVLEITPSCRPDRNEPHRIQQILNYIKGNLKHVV
Description: Competitive inhibition of HDAC8 using KI-104 as substrate by fluorescence assay

Histone deacetylase 3 = Histone deacetylase 3 (Homo sapiens, UniProt O15379)
Sequence of Histone deacetylase 3 (O15379 whole entry): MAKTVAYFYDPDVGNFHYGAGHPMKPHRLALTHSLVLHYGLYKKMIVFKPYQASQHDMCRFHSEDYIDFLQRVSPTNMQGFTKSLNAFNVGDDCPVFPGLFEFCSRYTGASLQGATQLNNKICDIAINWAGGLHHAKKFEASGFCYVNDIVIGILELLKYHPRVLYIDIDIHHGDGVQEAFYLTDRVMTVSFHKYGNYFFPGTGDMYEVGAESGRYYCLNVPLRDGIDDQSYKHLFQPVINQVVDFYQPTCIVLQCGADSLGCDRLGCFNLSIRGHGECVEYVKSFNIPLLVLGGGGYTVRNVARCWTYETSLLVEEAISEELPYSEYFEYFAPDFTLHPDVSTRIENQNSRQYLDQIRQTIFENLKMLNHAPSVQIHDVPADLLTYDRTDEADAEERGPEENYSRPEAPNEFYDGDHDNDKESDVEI
Description: Competitive inhibition of HDAC3 using KI-104 as substrate by fluorescence assay

[4] = target: T4, Protein deacetylase HDAC6 (Homo sapiens, UniProt Q9UBN7)
T4 sequence (Q9UBN7 whole entry): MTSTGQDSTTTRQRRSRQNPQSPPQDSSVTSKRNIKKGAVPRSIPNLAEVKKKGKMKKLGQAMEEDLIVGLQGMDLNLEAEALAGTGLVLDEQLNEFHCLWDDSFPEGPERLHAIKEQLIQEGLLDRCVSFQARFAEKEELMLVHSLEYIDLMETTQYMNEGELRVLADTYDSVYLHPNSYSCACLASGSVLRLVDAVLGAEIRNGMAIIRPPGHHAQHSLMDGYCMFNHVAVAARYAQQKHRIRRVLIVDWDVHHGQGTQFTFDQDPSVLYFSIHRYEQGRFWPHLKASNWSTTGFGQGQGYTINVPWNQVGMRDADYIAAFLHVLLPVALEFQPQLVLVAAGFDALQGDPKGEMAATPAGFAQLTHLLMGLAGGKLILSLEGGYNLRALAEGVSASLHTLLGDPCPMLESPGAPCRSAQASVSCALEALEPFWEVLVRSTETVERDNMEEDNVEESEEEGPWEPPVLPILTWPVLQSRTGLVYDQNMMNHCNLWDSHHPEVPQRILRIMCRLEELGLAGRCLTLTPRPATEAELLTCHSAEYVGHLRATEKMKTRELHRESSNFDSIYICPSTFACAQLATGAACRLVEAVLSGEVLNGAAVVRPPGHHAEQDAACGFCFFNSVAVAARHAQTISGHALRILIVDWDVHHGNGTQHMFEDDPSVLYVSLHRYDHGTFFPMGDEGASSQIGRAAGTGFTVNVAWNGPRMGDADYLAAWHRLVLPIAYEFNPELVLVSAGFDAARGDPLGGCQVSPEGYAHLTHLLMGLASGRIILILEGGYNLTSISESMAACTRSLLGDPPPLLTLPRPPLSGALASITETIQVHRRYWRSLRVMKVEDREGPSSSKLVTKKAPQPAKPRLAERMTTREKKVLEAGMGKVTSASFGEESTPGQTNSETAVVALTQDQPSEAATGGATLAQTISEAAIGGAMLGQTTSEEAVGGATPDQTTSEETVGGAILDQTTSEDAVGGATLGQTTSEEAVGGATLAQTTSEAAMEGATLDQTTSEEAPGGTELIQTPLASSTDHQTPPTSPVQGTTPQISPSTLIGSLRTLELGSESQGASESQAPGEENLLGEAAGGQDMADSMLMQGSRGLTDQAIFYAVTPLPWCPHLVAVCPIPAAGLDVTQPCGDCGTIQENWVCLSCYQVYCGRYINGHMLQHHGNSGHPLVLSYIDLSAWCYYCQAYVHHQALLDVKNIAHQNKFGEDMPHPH
Description: Competitive inhibition of HDAC6 using KI-104 as substrate by fluorescence assay

Histone deacetylase 4 = Histone deacetylase 4 (Homo sapiens, UniProt P56524)
Sequence of Histone deacetylase 4 (P56524 whole entry): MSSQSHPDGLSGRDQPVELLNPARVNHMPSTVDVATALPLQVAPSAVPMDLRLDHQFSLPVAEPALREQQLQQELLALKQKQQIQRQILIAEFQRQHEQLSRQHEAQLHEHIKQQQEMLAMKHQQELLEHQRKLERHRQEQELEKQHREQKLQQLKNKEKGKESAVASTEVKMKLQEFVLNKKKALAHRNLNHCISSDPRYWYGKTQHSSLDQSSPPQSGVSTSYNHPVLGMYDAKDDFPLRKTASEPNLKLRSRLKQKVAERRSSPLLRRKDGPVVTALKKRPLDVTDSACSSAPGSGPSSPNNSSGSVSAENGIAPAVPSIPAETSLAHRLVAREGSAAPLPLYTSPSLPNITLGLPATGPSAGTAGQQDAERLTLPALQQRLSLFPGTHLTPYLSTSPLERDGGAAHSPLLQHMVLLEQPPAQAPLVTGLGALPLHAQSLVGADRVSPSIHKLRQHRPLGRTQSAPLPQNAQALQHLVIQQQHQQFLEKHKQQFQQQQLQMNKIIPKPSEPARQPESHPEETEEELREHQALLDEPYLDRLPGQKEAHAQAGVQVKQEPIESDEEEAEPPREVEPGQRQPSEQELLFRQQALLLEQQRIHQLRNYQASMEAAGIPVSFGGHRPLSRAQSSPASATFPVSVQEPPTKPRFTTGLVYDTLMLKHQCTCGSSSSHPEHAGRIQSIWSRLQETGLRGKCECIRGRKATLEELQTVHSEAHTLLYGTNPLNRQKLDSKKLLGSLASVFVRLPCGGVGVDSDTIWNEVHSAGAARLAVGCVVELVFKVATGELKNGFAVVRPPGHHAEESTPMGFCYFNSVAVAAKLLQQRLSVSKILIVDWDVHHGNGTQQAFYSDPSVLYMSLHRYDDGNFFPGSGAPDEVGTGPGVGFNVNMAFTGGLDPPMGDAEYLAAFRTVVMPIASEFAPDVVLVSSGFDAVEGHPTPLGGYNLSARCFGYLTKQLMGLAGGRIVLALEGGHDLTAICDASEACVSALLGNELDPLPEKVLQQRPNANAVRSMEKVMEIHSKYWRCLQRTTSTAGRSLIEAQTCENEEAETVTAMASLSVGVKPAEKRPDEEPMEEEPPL
Description: Competitive inhibition of HDAC4 using KI-104 as substrate by fluorescence assay

Histone deacetylase 11 = target: T5, Histone deacetylase 11 (Homo sapiens, UniProt Q96DB2)
T5 sequence (Q96DB2 whole entry): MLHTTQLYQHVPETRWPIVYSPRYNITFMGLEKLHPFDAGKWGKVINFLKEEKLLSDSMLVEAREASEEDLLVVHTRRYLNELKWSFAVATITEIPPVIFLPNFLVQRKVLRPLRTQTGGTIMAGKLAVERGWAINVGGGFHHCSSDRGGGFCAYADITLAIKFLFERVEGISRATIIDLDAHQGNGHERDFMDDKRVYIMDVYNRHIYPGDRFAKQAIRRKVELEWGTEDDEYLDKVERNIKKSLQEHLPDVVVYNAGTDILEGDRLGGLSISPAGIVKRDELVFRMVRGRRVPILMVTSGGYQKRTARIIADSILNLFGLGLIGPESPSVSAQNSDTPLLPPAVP
Description: Competitive inhibition of HDAC11 using KI-104 as substrate by fluorescence assay

[5] = Half life in mouse liver microsomes; type: ADME, Microsome; settings: liver microsomes
[6] = Half life in human liver microsomes; type: ADME, Microsome

T1 sequence (Q13547 whole entry): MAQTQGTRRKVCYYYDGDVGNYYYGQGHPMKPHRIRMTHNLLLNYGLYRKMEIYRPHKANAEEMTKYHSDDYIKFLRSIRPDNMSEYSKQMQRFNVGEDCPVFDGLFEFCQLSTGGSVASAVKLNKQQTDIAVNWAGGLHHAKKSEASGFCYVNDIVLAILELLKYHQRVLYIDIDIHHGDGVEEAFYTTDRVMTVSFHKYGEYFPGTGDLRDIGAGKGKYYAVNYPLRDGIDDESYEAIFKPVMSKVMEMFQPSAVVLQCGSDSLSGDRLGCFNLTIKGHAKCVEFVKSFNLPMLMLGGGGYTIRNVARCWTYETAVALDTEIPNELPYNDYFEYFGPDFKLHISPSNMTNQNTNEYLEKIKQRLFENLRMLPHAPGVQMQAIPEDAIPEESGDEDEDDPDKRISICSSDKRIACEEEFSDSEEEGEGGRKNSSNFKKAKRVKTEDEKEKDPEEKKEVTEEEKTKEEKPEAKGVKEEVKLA

| SMILES | IC50 (Histone deacetylase 1 [1]) [nM] | IC50 (COLO 205) [nM] | further results |
| --- | --- | --- | --- |
| CC(C)Cc1nc2cc(/C=C/C(=O)NO)ccc2n1CC(C)(C)CN(C)C | 175 | 2690 |  |
| CCCCCc1nc2cc(/C=C/C(=O)NO)ccc2n1C1CCCN(C)C1 (stereo not given) | 158 | 2100 |  |
| CCCCc1nc2cc(/C=C/C(=O)NO)ccc2n1CCN(C)CC |  | 1650 |  |
| CCCCc1nc2cc(/C=C/C(=O)NO)ccc2n1C1CCN(C)C1 (stereo not given) | 125 | 1090 |  |
| CC(C)c1nc2cc(/C=C/C(=O)NO)ccc2n1CC(C)(C)CN(C)C | 308 | 1730 |  |
| CCN(CC)CCn1c(CCc2ccccc2)nc2cc(/C=C/C(=O)NO)ccc21 |  |  | half-life [5]: 5 min; half-life [6]: ≥ 30 min |
| CCCCc1nc2cc(/C=C/C(=O)NO)ccc2n1C1CCCNC1 (stereo not given) | 190 | 4870 |  |
| CN(C)CC(C)(C)Cn1c(C2CCCCC2)nc2cc(/C=C/C(=O)NO)ccc21 | 421 | 2450 |  |
| CCCCc1nc2cc(/C=C/C(=O)NO)ccc2n1C1CCNC1 (stereo not given) | 110 | 16400 |  |
| CCCCc1nc2cc(/C=C/C(=O)NO)ccc2n1CCN(C(C)C)C(C)C | 335 | 1870 |  |
| CCCCc1nc2cc(/C=C/C(=O)NO)ccc2n1CCCNC(C)C | 165 | 2890 |  |
| CCCCc1nc2cc(/C=C/C(=O)NO)ccc2n1CCC(C)C | 2490 | 6020 |  |
| CCN(CC)CCn1c(CC(C)(C)C)nc2cc(/C=C/C(=O)NO)ccc21 | 135 | 1190 |  |
| CCN(CC)CCc1nc2cc(/C=C/C(=O)NO)ccc2n1CCC(C)C | 575 | 6810 |  |
| NCCn1c(C2CC2c2ccccc2)nc2cc(/C=C/C(=O)NO)ccc21 (stereo not given) | 84 | 4530 |  |
| CCCCc1nc2cc(/C=C/C(=O)NO)ccc2n1CC(C)(C)CN(C)C | 150 | 2230 |  |
| CCCCCCc1nc2cc(/C=C/C(=O)NO)ccc2n1C1CCCNC1 (stereo not given) | 105 | 1340 |  |
| CCCCCCc1nc2cc(/C=C/C(=O)NO)ccc2n1C1CCNC1 (stereo not given) | 41 | 1460 |  |
| CCCCc1nc2cc(/C=C/C(=O)NO)ccc2n1C1CCNCC1 |  | 7000 |  |

Second part, led by results:

| IC50 (Histone deacetylase 1 [1]) [nM] | IC50 (COLO 205) [nM] | SMILES | further results |
| --- | --- | --- | --- |
| 77 | 880 | CCCCc1nc2cc(/C=C/C(=O)NO)ccc2n1CCNCC | IC50 (PC-3): 380 nM; IC50 (HCT-116): 1110 nM; IC50 (A2780): 760 nM |
| 45 | 540 | CCCCc1nc2cc(/C=C/C(=O)NO)ccc2n1CCN(C)C(C)C |  |
| 41 | 950 | CCCCCc1nc2cc(/C=C/C(=O)NO)ccc2n1CCNC |  |
| 21 | 310 | CC/C=C\CCc1nc2cc(/C=C/C(=O)NO)ccc2n1CCNCC | Ki (Histone deacetylase 2): 8.6 nM; Ki (Histone deacetylase 5): 3.1 nM; IC50 (PC-3): 160 nM; IC50 (HCT-116): 660 nM; Ki (Histone deacetylase 1 [2]): 7.7 nM; Ki (Histone deacetylase 9): 5.7 nM; Ki [3]: 18 nM; Ki (Histone deacetylase 8): 55 nM; Ki (Histone deacetylase 3): 16 nM; Ki [4]: 4 nM; Ki (Histone deacetylase 4): 2.4 nM; Ki (Histone deacetylase 11): 8.8 nM; IC50 (A2780): 200 nM |
| 37 | 150 | CC(Cc1nc2cc(/C=C/C(=O)NO)ccc2n1CC(C)(C)CN(C)C)CC(C)(C)C (stereo not given) | IC50 (PC-3): 310 nM; IC50 (HCT-116): 410 nM; IC50 (A2780): 230 nM |
| 175 | 690 | CN(C)CCn1c(C2CC2c2ccccc2)nc2cc(/C=C/C(=O)NO)ccc21 (stereo not given) |  |
| 45 | 420 | CCCCCCc1nc2cc(/C=C/C(=O)NO)ccc2n1CCN(CC)CC |  |
| 27 | 420 | CCCCCc1nc2cc(/C=C/C(=O)NO)ccc2n1CCNCC |  |
| 155 | 980 | CCCc1nc2cc(/C=C/C(=O)NO)ccc2n1CCN(CC)CC |  |
| 15 | 230 | CCCCCCCCc1nc2cc(/C=C/C(=O)NO)ccc2n1CCNC |  |
| 32 | 390 | CCN(CC)CCn1c(CC2CC3CCC2C3)nc2cc(/C=C/C(=O)NO)ccc21 (stereo not given) | IC50 (PC-3): 530 nM; IC50 (HCT-116): 330 nM; IC50 (A2780): 210 nM |
| 53 | 620 | CC/C=C\CCc1nc2cc(/C=C/C(=O)NO)ccc2n1CC(C)(C)CN(C)C | IC50 (PC-3): 380 nM; IC50 (HCT-116): 920 nM; IC50 (A2780): 370 nM |
| 90 | 650 | CCCCc1nc2cc(/C=C/C(=O)NO)ccc2n1CCN(C)C |  |
| 169 | 630 | CCN(CC)CCn1c(C2CC2c2ccccc2)nc2cc(/C=C/C(=O)NO)ccc21 (trans isomer) |  |
| 41 | 450 | CCCCCc1nc2cc(/C=C/C(=O)NO)ccc2n1CCN(C)CC |  |
| 29 | 550 | CCCCCCc1nc2cc(/C=C/C(=O)NO)ccc2n1CCNC |  |
| 92 | 810 | CCN(CC)CCn1c(CC(C)C)nc2cc(/C=C/C(=O)NO)ccc21 | IC50 (PC-3): 950 nM; IC50 (HCT-116): 1300 nM; IC50 (A2780): 1240 nM |
| 23 | 140 | CCNCCn1c(CC(C)CC(C)(C)C)nc2cc(/C=C/C(=O)NO)ccc21 (stereo not given) | IC50 (PC-3): 100 nM; IC50 (HCT-116): 270 nM; IC50 (A2780): 140 nM |
| 22 | 540 | CCCCCCCCc1nc2cc(/C=C/C(=O)NO)ccc2n1CCN |  |

From ChEMBL document CHEMBL1828590 (J Med Chem, 2011)
